Test results as given in paper PMC6332318, “Synthetic Development of New 3-(4-Arylmethylamino)butyl-5-arylidene-rhodanines under Microwave Irradiation and Their Effects on Tumor Cell Lines and against Protein Kinases” (Molecules, 2015).

Legend:
Experiment in all cases: protein kinase assay, [γ-33P] ATP
HsHaspin = biological target: T1, HsHaspin (Homo sapiens, UniProt Q8TF76); type: biochemical
T1 construct: HsHaspin-kd aa 470 to 798; GST (from vector pGEX-6P-3; tag and N-terminal position are own knowledge of the vector) (N); made in house; host or cells: Escherichia coli BL21-KRX
T1 sequence (Q8TF76 470-798): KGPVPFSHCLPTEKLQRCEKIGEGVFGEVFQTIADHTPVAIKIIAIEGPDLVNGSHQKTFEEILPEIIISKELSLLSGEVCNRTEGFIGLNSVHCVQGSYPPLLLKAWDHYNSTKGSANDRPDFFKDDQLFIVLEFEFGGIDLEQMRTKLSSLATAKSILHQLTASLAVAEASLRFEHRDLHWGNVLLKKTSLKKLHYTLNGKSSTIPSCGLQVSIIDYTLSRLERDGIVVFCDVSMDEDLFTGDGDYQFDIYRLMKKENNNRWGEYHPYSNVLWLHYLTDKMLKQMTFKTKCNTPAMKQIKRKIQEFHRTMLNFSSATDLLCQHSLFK
Method: Then, we evaluated the intermediates salts 6a–f and fourteen final compounds 9a–n on four protein kinases: HsCDK5-p25 (cyclin-dependant kinase 5-p25), SsGSK-3α/β (glycogen synthase kinase-3α/β) SsCK1δ/ε (Caseine kinase 1) and HsHaspin as an essential mitotic kinase. […] IC50 values were determined from dose-response curves.
(§1) ATP (3000 Ci/mmol; 10 mCi/mL) in a final volume of 30 µL. After 30 min incubation at 30 °C, the reaction was stopped by harvesting, using a FilterMate harvester (Packard, Meriden, CT, USA), onto P81 phosphocellulose papers (GE Healthcare, Velizy-Villacoublay, France) which were washed in 1% phosphoric acid. Scintillation fluid was added and the radioactivity measured in a Packard counter. Blank values were subtracted and activities calculated as pmoles of phosphate incorporated during the 30 min incubation. The activities were expressed in a percentage of the maximal activity, i.e., in the absence of inhibitors. Controls were performed with appropriate dilutions of DMSO. CK1 and Haspin peptide substrates were obtained from Proteogenix (Oberhausbergen, France).
Haspin kinase domain (HsHaspin-kd aa 470 to 798) encoding cDNA, obtain by RT-PCR, was cloned into pGex-6P-3. The fusion protein was expressed in Escherichia coli strain BL21-KRX (Promega, Madison, WI, USA) and purified by affinity chromatography on glutathione-agarose beads (Sigma). Haspin-kd activity was assayed with 3 µM Histone H3 (1-21) peptide, a specific Haspin substrate, ([…]), in Buffer H (MOPS 25 mM pH 7.5; 10 mM MgCl2).

SsCK1δ/ε = type: biochemical, porcine; conditions: 15 μM ATP; CKS peptide substrate; >10 = inhibitory but IC50 > 10 μM
Method: (§2) Then, we evaluated the intermediates salts 6a–f and fourteen final compounds 9a–n on four protein kinases: HsCDK5-p25 (cyclin-dependant kinase 5-p25), SsGSK-3α/β (glycogen synthase kinase-3α/β) SsCK1δ/ε (Caseine kinase 1) and HsHaspin as an essential mitotic kinase. All assays were run in the presence of 15 μM of ATP and appropriate substrates. IC50 values were determined from dose-response curves. Concerning the library of the fourteen (5Z) 3-(4-arylmethylamino)butyl-5-arylidene-2-thioxo-1,3-thiazolidine-4-ones 9a–n and also the six diamines salts 6a–f, the results are given in Table 3. […] It is interesting to note that these two compounds are respectively substituted with an hydroxyl function on para-position of the 5-arylidene moiety and also with a similar bulky group (1,3-benzodioxol-5-yl for 9j and 2,3-dihydro-benzo[1,4]dioxin-6-yl for 9n) on the arylmethylamino moiety grafted on the N-3 butyl chain.
as §1, with “Kinase activities for each enzyme were assayed in buffer A (25 mM Tris-HCl pH 7.5, 10 mM MgCl2, 1 mM EGTA, 1 mM DTT, 50 µg/mL Heparin, BSA 0.15 mg/mL) or B (60 mM β-glycerophosphate, 30 mM p-Nitrophenylphosphate, 25 mM MOPS, 5 mM EGTA, 15 mM MgCl2, 1 mM DTT, 0.1 mM Na vanadate), with their corresponding substrates, in the presence of 15 µM [γ-^33P] ATP” for “ATP”
Casein kinase 1 (CK1δ/ε) (porcine brain, native) was assayed with 0.67 µg of CKS peptide ([…]pSAYSITA).

SsGSK-3α/β = type: biochemical, porcine; conditions: 15 μM ATP; GS-1 substrate; >10 = inhibitory but IC50 > 10 μM
Method: as §2
as §1, with “Kinase activities for each enzyme were assayed in buffer A (25 mM Tris-HCl pH 7.5, 10 mM MgCl2, 1 mM EGTA, 1 mM DTT, 50 µg/mL Heparin, BSA 0.15 mg/mL) or B (60 mM β-glycerophosphate, 30 mM p-Nitrophenylphosphate, 25 mM MOPS, 5 mM EGTA, 15 mM MgCl2, 1 mM DTT, 0.1 mM Na vanadate), with their corresponding substrates, in the presence of 15 µM [γ-^33P] ATP” for “ATP”
GSK-3α/β (porcine brain, native) was assayed, as described for CDK5/p25 but in Buffer A and using a GSK-3 specific substrate (GS-1: […]pEDEEE) (pS stands for phosphorylated serine). GS-1 was synthesized by Millegen (Labege, France).

HsCDK5/p25 = biological target: T2, HsCDK5/p25 (Homo sapiens, UniProt Q00535); type: biochemical
T2 construct: made in house
T2 sequence (Q00535 whole entry): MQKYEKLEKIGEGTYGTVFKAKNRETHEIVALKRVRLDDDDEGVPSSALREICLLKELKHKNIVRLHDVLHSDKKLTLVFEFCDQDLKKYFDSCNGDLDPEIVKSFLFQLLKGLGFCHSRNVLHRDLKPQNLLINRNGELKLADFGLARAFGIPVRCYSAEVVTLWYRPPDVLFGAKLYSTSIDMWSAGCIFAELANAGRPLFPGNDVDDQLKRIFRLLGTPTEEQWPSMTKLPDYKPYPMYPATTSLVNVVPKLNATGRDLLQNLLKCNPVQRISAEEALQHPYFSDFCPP
T2 sequence (Q15078 99-307 partner limits assumed): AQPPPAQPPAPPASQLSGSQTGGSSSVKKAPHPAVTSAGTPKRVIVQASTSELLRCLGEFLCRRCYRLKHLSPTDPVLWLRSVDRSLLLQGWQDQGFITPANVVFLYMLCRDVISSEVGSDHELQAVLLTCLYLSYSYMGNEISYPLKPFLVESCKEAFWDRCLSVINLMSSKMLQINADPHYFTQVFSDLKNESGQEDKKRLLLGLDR
Method: as §2
as §1, with “Kinase activities for each enzyme were assayed in buffer A (25 mM Tris-HCl pH 7.5, 10 mM MgCl2, 1 mM EGTA, 1 mM DTT, 50 µg/mL Heparin, BSA 0.15 mg/mL) or B (60 mM β-glycerophosphate, 30 mM p-Nitrophenylphosphate, 25 mM MOPS, 5 mM EGTA, 15 mM MgCl2, 1 mM DTT, 0.1 mM Na vanadate), with their corresponding substrates, in the presence of 15 µM [γ-^33P] ATP” for “ATP”
CDK5/p25 (human, recombinant) was prepared as previously described. […]

Compound | IC50 (HsHaspin) | IC50 (SsCK1δ/ε) | IC50 (SsGSK-3α/β) | IC50 (HsCDK5/p25)
COc1cc(/C=C2\SC(=S)N(CCCCNCc3ccc4c(c3)OCCO4)C2=O)ccc1O [Compound 9n, (5Z)3-[4-(2,3-Dihydro-benzo[1,4]dioxin-6-ylmethylamino)butyl]-5-(4-hydroxy-3-methoxybenzylidene)-2-thioxo-1,3-thiazolidin-4-one] | > 10 µM | 2 µM | > 10 µM | –
O=C1/C(=C/c2ccc3c(c2)OCO3)SC(=S)N1CCCCNCc1ccc2c(c1)OCO2 [Compound 9h, (5Z)3-[4-(1,3-Benzodioxol-5-ylmethylamino)butyl]-5-(1,3-benzodioxol-5-ylmethylene)-2-thioxo-1,3-thiazolidin-4-one] | > 10 µM | 6.6 µM | > 10 µM | 1.1 µM
O=C1/C(=C/c2ccc(O)cc2)SC(=S)N1CCCCNCc1ccc2c(c1)OCO2 [Compound 9j, (5Z)3-[4-(1,3-Benzodioxol-5-ylmethylamino)butyl]-5-(4-hydroxy-benzylidene)-2-thioxo-1,3-thiazolidin-4-one] | > 10 µM | 1.4 µM | > 10 µM | > 10 µM
O=C1/C(=C/c2ccc3c(c2)OCCO3)SC(=S)N1CCCCNCc1ccc2c(c1)OCO2 [Compound 9i, (5Z)3-[4-(1,3-Benzodioxol-5-ylmethylamino)butyl]-5-(2,3-dihydro-1,4-benzodioxin-6-ylmethylene)-2-thioxo-1,3-thiazolidin-4-one] | > 10 µM | 5.4 µM | > 10 µM | 1.3 µM
